# Measurements reported in US7728012B2, “Carboxamide compounds and their use as calpain inhibitors” (Abbott GmbH & Co. KG, priority 2006, dated 2010).
# Legend:
# Assay type in all cases: biochemical
# [1] = biological target: T1, calpain-I isolated from human erythrocytes (Homo sapiens, UniProt P07384); assay: Calpain I kinetic fluorescence enzyme inhibition assay; conditions: apparent Ki from IC50 by Cheng-Prussoff; average of 2 to 4 dose-effect plots
# T1 construct: calpain-I—isolated from human erythrocytes; purchased Calbiochem 208713; host or cells: human erythrocytes (tissue isolate)
# T1 sequence (P07384 1-714): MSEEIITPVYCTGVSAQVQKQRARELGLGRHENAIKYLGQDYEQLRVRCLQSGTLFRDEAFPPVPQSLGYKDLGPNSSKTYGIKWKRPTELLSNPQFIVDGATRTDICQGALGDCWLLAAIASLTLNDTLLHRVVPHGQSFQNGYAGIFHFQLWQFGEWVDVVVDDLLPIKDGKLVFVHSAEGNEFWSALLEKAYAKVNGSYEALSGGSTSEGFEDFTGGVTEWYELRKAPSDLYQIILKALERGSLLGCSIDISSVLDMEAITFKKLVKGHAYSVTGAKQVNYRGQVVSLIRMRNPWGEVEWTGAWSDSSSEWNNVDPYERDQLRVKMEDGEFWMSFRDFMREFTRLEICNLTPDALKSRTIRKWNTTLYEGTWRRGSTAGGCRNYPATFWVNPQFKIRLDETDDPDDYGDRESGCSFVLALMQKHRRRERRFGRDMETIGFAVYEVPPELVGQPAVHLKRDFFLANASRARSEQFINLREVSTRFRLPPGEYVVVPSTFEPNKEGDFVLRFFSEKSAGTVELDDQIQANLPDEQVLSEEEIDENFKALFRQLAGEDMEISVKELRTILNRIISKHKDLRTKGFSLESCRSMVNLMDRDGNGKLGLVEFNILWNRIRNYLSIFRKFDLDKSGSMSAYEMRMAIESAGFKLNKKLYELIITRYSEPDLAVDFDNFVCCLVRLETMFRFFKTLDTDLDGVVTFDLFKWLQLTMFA
# T1 sequence (P04632 1-268 partner): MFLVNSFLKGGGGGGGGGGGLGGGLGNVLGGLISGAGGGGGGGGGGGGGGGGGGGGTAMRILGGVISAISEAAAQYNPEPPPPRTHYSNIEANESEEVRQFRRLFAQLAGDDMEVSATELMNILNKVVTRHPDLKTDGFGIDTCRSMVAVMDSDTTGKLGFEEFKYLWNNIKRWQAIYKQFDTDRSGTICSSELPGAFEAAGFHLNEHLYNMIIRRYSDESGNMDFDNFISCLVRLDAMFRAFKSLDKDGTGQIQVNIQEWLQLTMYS
# [2] = biological target: T2, cathepsin B isolated from human liver (Homo sapiens, UniProt P07858); assay: Cathepsin B kinetic fluorescence enzyme inhibition assay; conditions: selectivity ratio versus calpain I
# T2 construct: cathepsin B—isolated from human liver; purchased Calbiochem 219362; host or cells: human liver (tissue isolate)
# Outline: (§1)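 Inhibition is measured at room temperature in cysteine-containing MES buffer, pH 6.0, by continuous fluorescence at 460 nm. Cathepsin S (0.5 nM) uses 20 μM Z-Val-Val-Arg-AMC; L (1 nM) and B (0.25 nM) use Z-Phe-Arg-AMC at 2 and 100 μM respectively.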
# [3] = biological target: T3, cathepsin K activated from recombinant human procathepsin K (Homo sapiens, UniProt P43235); assay: Cathepsin K kinetic fluorescence enzyme inhibition assay; conditions: selectivity ratio versus calpain I
# T3 construct: purchased Calbiochem 342001; host or cells: E. coli
# T3 sequence (P43235 115-329): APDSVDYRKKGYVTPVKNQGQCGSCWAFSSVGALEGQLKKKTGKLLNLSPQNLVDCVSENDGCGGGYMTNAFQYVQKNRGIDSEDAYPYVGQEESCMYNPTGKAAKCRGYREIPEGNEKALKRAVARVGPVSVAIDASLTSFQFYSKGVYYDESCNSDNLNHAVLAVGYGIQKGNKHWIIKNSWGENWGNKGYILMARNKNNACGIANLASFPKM
# [4] = biological target: T4, cathepsin L isolated from human liver (Homo sapiens, UniProt P07711); assay: Cathepsin L kinetic fluorescence enzyme inhibition assay; conditions: selectivity ratio versus calpain I
# T4 construct: cathepsin L—isolated from human liver; purchased Calbiochem 219402; host or cells: human liver (tissue isolate)
# T4 sequence (P07711 114-333): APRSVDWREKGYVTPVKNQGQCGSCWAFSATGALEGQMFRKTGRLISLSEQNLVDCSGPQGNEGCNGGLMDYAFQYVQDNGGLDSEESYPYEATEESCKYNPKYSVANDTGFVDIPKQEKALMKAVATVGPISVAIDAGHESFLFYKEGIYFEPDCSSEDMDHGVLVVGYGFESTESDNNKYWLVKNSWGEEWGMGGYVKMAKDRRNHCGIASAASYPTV
# Outline: as §1
# [5] = biological target: T5, recombinant human cathepsin S (Homo sapiens, UniProt P25774); assay: Cathepsin S kinetic fluorescence enzyme inhibition assay; conditions: selectivity ratio versus calpain I
# T5 construct: purchased Calbiochem 219343; host or cells: E. coli
# T5 sequence (P25774 115-331): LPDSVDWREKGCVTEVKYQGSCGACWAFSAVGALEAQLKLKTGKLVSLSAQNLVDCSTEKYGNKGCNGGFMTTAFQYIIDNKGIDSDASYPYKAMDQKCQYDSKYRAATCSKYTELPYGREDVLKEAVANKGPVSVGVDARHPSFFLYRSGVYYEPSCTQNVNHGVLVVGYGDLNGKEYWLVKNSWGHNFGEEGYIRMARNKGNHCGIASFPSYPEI
# Outline: as §1
SMILES,Ki [1],Sel cat. B (Ki(cathepsin B)/Ki(calpain) ratio) [2],Sel cat. K (Ki(cathepsin K)/Ki(calpain) ratio) [3],Sel cat. L (Ki(cathepsin L)/Ki(calpain) ratio) [4],Sel cat. S (Ki(cathepsin S)/Ki(calpain) ratio) [5]
"NC(=O)C(=O)C(Cc1ccccc1)NC(=O)c1cccnc1-n1ccc(-c2cccc(Cl)c2)n1 (stereo not drawn) [Example 70, N-(3-Amino-1-benzyl-2,3-dioxopropyl)-2-[3-(3-chlorophenyl)-1H-pyrazol-1-yl]nicotinamide]",≤ 40 nM,+ (10≦Ki(cathepsin B)/Ki(calpain)<30),+ (10≦Ki(cathepsin K)/Ki(calpain)<30),++ (Ki(cathepsin L)/Ki(calpain) ratio of ≧50),++ (Ki(cathepsin S)/Ki(calpain) ratio of ≧100)
"NC(=O)C(=O)C(Cc1ccccc1)NC(=O)c1cccnc1-n1ccc(-c2ccc(F)cc2Cl)n1 (stereo not drawn) [Example 71, N-(3-Amino-1-benzyl-2,3-dioxopropyl)-2-[3-(2-chloro-4-fluorophenyl)-1H-pyrazol-1-yl]nicotinamide]",40 to 100 nM,++ (Ki(cathepsin B)/Ki(calpain) ratio of ≧30),++ (Ki(cathepsin K)/Ki(calpain) ratio of ≧30),++ (Ki(cathepsin L)/Ki(calpain) ratio of ≧50),++ (Ki(cathepsin S)/Ki(calpain) ratio of ≧100)
"NC(=O)C(=O)C(Cc1ccccc1)NC(=O)c1cccnc1-n1ccc(-c2ccccc2C(F)(F)F)n1 (stereo not drawn) [Example 72, N-(3-Amino-1-benzyl-2,3-dioxopropyl)-2-{3-[2-(trifluoromethyl)phenyl]-1H-pyrazol-1-yl}nicotinamide]",40 to 100 nM,+ (10≦Ki(cathepsin B)/Ki(calpain)<30),+ (10≦Ki(cathepsin K)/Ki(calpain)<30),+ (30≦Ki(cathepsin L)/Ki(calpain)<50),++ (Ki(cathepsin S)/Ki(calpain) ratio of ≧100)
"NC(=O)C(=O)C(Cc1ccccc1)NC(=O)c1cccnc1-n1ccc(-c2ccccc2F)n1 (stereo not drawn) [Example 76, N-(3-Amino-1-benzyl-2,3-dioxopropyl)-2-[3-(2-fluorophenyl)-1H-pyrazol-1-yl]nicotinamide]",≤ 40 nM,++ (Ki(cathepsin B)/Ki(calpain) ratio of ≧30),+ (10≦Ki(cathepsin K)/Ki(calpain)<30),++ (Ki(cathepsin L)/Ki(calpain) ratio of ≧50),++ (Ki(cathepsin S)/Ki(calpain) ratio of ≧100)
"NC(=O)C(=O)C(Cc1ccccc1)NC(=O)c1cccnc1-n1ccc(-c2ccc(Cl)cc2Cl)n1 (stereo not drawn) [Example 79, N-(3-Amino-1-benzyl-2,3-dioxopropyl)-2-[3-(2,4-dichlorophenyl)-1H-pyrazol-1-yl]nicotinamide]",40 to 100 nM,++ (Ki(cathepsin B)/Ki(calpain) ratio of ≧30),++ (Ki(cathepsin K)/Ki(calpain) ratio of ≧30),++ (Ki(cathepsin L)/Ki(calpain) ratio of ≧50),++ (Ki(cathepsin S)/Ki(calpain) ratio of ≧100)
"COc1ccc(CC(NC(=O)c2cccnc2-n2ccc(-c3ccccc3)n2)C(=O)C(N)=O)cc1 (stereo not drawn) [Example 80, N-[3-Amino-1-(4-methoxybenzyl)-2,3-dioxopropyl]-2-(3-phenyl-1H-pyrazol-1-yl)nicotinamide]",40 to 100 nM,++ (Ki(cathepsin B)/Ki(calpain) ratio of ≧30),+ (10≦Ki(cathepsin K)/Ki(calpain)<30),++ (Ki(cathepsin L)/Ki(calpain) ratio of ≧50),++ (Ki(cathepsin S)/Ki(calpain) ratio of ≧100)
"COc1ccc(CC(NC(=O)c2cccnc2-n2ccc(-c3ccc(F)cc3)n2)C(=O)C(N)=O)cc1 (stereo not drawn) [Example 81, N-[3-Amino-1-(4-methoxybenzyl)-2,3-dioxopropyl]-2-[3-(4-fluorophenyl)-1H-pyrazol-1-yl]nicotinamide]",≤ 40 nM,+ (10≦Ki(cathepsin B)/Ki(calpain)<30),+ (10≦Ki(cathepsin K)/Ki(calpain)<30),++ (Ki(cathepsin L)/Ki(calpain) ratio of ≧50),++ (Ki(cathepsin S)/Ki(calpain) ratio of ≧100)
"NC(=O)C(=O)C(Cc1ccccc1)NC(=O)c1cccnc1-n1ccc(-c2cccc(C(F)(F)F)c2)n1 (stereo not drawn) [Example 83, N-(3-Amino-1-benzyl-2,3-dioxopropyl)-2-{3-[3-(trifluoromethyl)phenyl]-1H-pyrazol-1-yl}nicotinamide]",≤ 40 nM,+ (10≦Ki(cathepsin B)/Ki(calpain)<30),++ (Ki(cathepsin K)/Ki(calpain) ratio of ≧30),++ (Ki(cathepsin L)/Ki(calpain) ratio of ≧50),++ (Ki(cathepsin S)/Ki(calpain) ratio of ≧100)
"NC(=O)C(=O)C(Cc1ccccc1)NC(=O)c1cccnc1-n1ccc(-c2c(F)cccc2F)n1 (stereo not drawn) [Example 85, N-[3-Amino-2,3-dioxo-1-(phenylmethyl)propyl]-2-[3-(2,6-difluorophenyl)-1H-pyrazol-1-yl]pyridine-3-carboxamide]",≤ 40 nM,+ (10≦Ki(cathepsin B)/Ki(calpain)<30),++ (Ki(cathepsin K)/Ki(calpain) ratio of ≧30),++ (Ki(cathepsin L)/Ki(calpain) ratio of ≧50),++ (Ki(cathepsin S)/Ki(calpain) ratio of ≧100)
"CC(C)c1ccc(-c2ccn(-c3ncccc3C(=O)NC(Cc3ccccc3)C(=O)C(N)=O)n2)cc1 (stereo not drawn) [Example 87, N-[3-Amino-2,3-dioxo-1-(phenylmethyl)propyl]-2-{3-[4-(1-methylethyl)phenyl]-1H-pyrazol-1-yl}pyridine-3-carboxamide]",≤ 40 nM,++ (Ki(cathepsin B)/Ki(calpain) ratio of ≧30),++ (Ki(cathepsin K)/Ki(calpain) ratio of ≧30),++ (Ki(cathepsin L)/Ki(calpain) ratio of ≧50),++ (Ki(cathepsin S)/Ki(calpain) ratio of ≧100)
"Cl.NC(=O)C(=O)C(Cc1cccnc1)NC(=O)c1cccnc1-n1ccc(-c2ccccc2)n1 (stereo not drawn) [Example 88, N-[3-Amino-2,3-dioxo-1-(pyridin-3-ylmethyl)propyl]-2-(3-phenyl-1H-pyrazol-1-yl)pyridine-3-carboxamide hydrochloride]",40 to 100 nM,+ (10≦Ki(cathepsin B)/Ki(calpain)<30),++ (Ki(cathepsin K)/Ki(calpain) ratio of ≧30),++ (Ki(cathepsin L)/Ki(calpain) ratio of ≧50),++ (Ki(cathepsin S)/Ki(calpain) ratio of ≧100)
"COc1ccccc1-c1ccn(-c2ncccc2C(=O)NC(Cc2ccccc2)C(=O)C(N)=O)n1 (stereo not drawn) [Example 90, N-[3-Amino-2,3-dioxo-1-(phenylmethyl)propyl]-2-{3-[2-(methyloxy)phenyl]-1H-pyrazol-1-yl}pyridine-3-carboxamide]",≤ 40 nM,++ (Ki(cathepsin B)/Ki(calpain) ratio of ≧30),+ (10≦Ki(cathepsin K)/Ki(calpain)<30),++ (Ki(cathepsin L)/Ki(calpain) ratio of ≧50),++ (Ki(cathepsin S)/Ki(calpain) ratio of ≧100)
